Measurements from patent publication US20250064007A1, “Self-Fertilization as Methods for Stabilizing Ploidy after Colchicine Treatment Model” (Rev Genomics, Inc., priority 2023, published 2025).

Test system: Cannabis plant
Assay: Leaf ploidy by flow cytometry after colchicine treatment of haploid Cannabis plants
Assay type: in vivo
Conditions: for cells counted diploid / cells counted haploid / cells counted tetraploid: mixaploid (n+2n) state
Text: In some exemplary embodiments, a colchicine concentration (in water) of 0.25% may be used in addition to 0.5%, 1% and 5%. An issue arises with Cannabis in that not all the cells or tissues of a colchicine treated plant will double their ploidy.
On the multi-cellular level, doubling the ploidy of plants requires colchicine treatment applied to the shoot apical meristem (SAM). The SAM is composed of three distinct cell layers: L1 (outermost layer), L2 (middle layer), and L3 (innermost layer). Within the SAM, stem cell division takes place along the peripheral zone where new leaves emerge (Heidstra, 2014). The L1 gives rise to the epidermis or the protective covering of the leaf and stem, L2 to the sub epidermal photosynthetic mesophyll tissue, and L3 to the vascular tissue including the xylem and phloem. L1 and L2 divide anticlinally or […] to each other and thus remain distinct layers (Meyerowitz, 1997). On occasion, a cell in the SAM can divide periclinally whereby the daughter cell invades and acquires the identity one layer out and brings its ploidy with it. This organizational dynamic creates a stable yet mutable developmental path. In fact, the discovery of the stability of different layers within a meristem was discovered by creating a chimera using colchicine on Datura. The researchers were able to follow the developmental lineage of the differently sized cells due to the different ploidy levels within the SAM (Satina, 1940).

[1] = cultivar Cryptic Lineage Legacy, FIG. 4C
[2] = cultivar Herbaceous Sting, FIG. 2C
[3] = cultivar Operation Green Harvest Haze, FIG. 3C
[4] = cultivar Standing Liberty, FIG. 1C

Structure (SMILES): COc1cc2c(c(OC)c1OC)-c1ccc(OC)c(=O)cc1[C@@H](NC(C)=O)CC2 [Colchicine]
- ploidy doubling of treated haploid plants (colchicine treated haploid Cannabis plants): very rarely, if ever, achieve a fully diploid state
- cells counted diploid [1]: approximately 20.65%
- cells counted haploid [1]: approximately 17.65%
- cells counted tetraploid [1]: approximately 2.63%
- cells counted diploid [2]: approximately 45.82%
- cells counted haploid [2]: approximately 12.15%
- cells counted tetraploid [2]: approximately 3.93%
- cells counted diploid [3]: approximately 22.8%
- cells counted haploid [3]: approximately 32.4%
- cells counted tetraploid [3]: approximately 3.1%
- cells counted diploid [4]: approximately 49%
- cells counted haploid [4]: approximately 12.48%
- cells counted tetraploid [4]: approximately 4.39%
